Counter-ions that a name gives are not always drawn.
Key:
Assay type in all cases: in vivo, rat
[1] = system: rats with acute myocardial ischemia; test: Area of myocardial infarction in rats with acute myocardial ischemia (coronary artery ligation); details: 10 mg/kg intragastric; 24 h after coronary artery ligation
Method: (§1) At 0.5 h after the rats of these groups were administered intragastrically, the standard II lead electrocardiogram (before modeling) was recorded, and the height of ST-T segment was measured. The rats of sham operation group were then subjected to coronary artery braid without ligation, and the rats of other groups were subjected to coronary artery ligation in accordance with the following method to establish cute myocardial ischemia models. The rats were subjected to etherization, fixed at supine position, and their normal electrocardiograms (before modeling) were recorded. The skin of left thorax was incised under aseptic conditions, the 4th intercostal muscles were isolated in blunt way, the heart was extruded by light pressure to the right thorax, the left anterior descending coronary artery was ligated at a position 2˜3 mm departing from the left coronary artery origin and between the pulmonary conus and the left auricle of heart, then the heart was sent back to thorax cavity immediately and sutured the incision. Penicillin was smeared topically for the prevention of infections. After operation, the electrocardiogram of postischemia was recorded immediately (at 0 min after modeling), and the height of ST-T segment was measured.

[2] = system: superoxide dismutase (SOD); test: Serum SOD activity in rats with myocardial ischemia; details: 10 mg/kg intragastric; serum, 24 h after ligation
Method: as §1

[3] = system: rats with acute myocardial ischemia; test: ST-T segment of ECG in rats with myocardial ischemia; details: 10 mg/kg intragastric
Method: as §1

[4] = system: lactate dehydrogenase (LDH); test: Serum LDH activity in rats with myocardial ischemia; details: 10 mg/kg intragastric; serum, 24 h after ligation
Method: as §1

[5] = system: creatine kinase isoenzyme (CK-MB); test: Serum CK-MB activity in rats with myocardial ischemia; details: 10 mg/kg intragastric; serum, 24 h after ligation
Method: as §1

[6] = system: creatine kinase (CK); test: Serum CK activity in rats with myocardial ischemia; details: 10 mg/kg intragastric; serum, 24 h after ligation
Method: as §1

[7] = system: anesthetized rats; test: Blood pressure and left ventricular function of anesthetized rats; details: for change-rate of left intraventricular pressure MAX / change-rate of left intraventricular pressure, -MAX / contractive pressure / diastolic pressure / heart rate / left intraventricular pressure / mean arterial pressure: 11.4 mg/kg duodenal
Method: All data were input into PowerLab/8Sp data acquisition and processing system via RM-6000 multi-channel polygraph, and recorded, analyzed and processed by PowerLab/8Sp.
The abdomen was opened 1.5 cm below xiphoid bone to isolate duodenum, a small incision was formed on the duodenum away from blood vessels by ophthalmic scissors, a catheter was inserted and the incision was fixed by suture for administration. After the end of operation and a further waiting period of 30 min, normal data were recorded once the indexes to be monitored were stable.
Test drugs were duodenally administered via the catheter, and the indexes were monitored 5, 15, 30, 60, 90 and 120 min after the administration. The change ratios of the indexes were calculated in accordance with the following formula, and were used for statistic analysis among groups.

[8] = system: malondialdehyde (MDA); test: Serum MDA content in rats with myocardial ischemia; details: 10 mg/kg intragastric; serum, 24 h after ligation
Method: as §1

## COc1ccc(CCN(C)CCCC(C#N)(c2ccc(OC)c(OC)c2)C(C)C)cc1OC (stereo not drawn) [Verapamil, verapamil hydrochloride, reference compound]
[1]
  Infarct region weight: 0.18 ± 0.04 g
  Non-infarct region weight: 0.46 ± 0.08 g
  Percentage (infarct cardiac muscles of whole ventricle, by weight): 27.60 ± 5.03 %
  Ventricle weight: 0.65 ± 0.09 g
[2]
  SOD: 126.16 ± 28.10 U/mL
[3]; 0 min after modeling
  Elevation of ST-T segment: 0.23 ± 0.12 mV
[3]; 24 h after modeling
  Elevation of ST-T segment: 0.18 ± 0.04 mV
  Elevation of ST-T segment, Change rate: 19.17 ± 20.94 %
[3]; before modeling
  Elevation of ST-T segment: 0.23 ± 0.04 mV
[4]
  LDH: 1160.8 ± 145.0 U/L
[5]
  CK-MB: 776.6 ± 127.6 U/L
[6]
  CK: 752.2 ± 102.8 U/L
[7]; 5 min after administration
  change-rate of left intraventricular pressure MAX: 4857.7 ± 1002.4 mmHg/s
  change-rate of left intraventricular pressure, -MAX: −3812.9 ± 779.3 mm/Hg/s
  contractive pressure: 115.30 ± 19.35 mmHg
  diastolic pressure: 59.69 ± 12.55 mmHg
  heart rate: 345.03 ± 33.81 beat/min
  left intraventricular pressure: 128.71 ± 14.20 mmHg
  mean arterial pressure: 78.22 ± 14.31 mmHg
[7]; 15 min after administration
  change-rate of left intraventricular pressure MAX: 4284.9 ± 793.2 mmHg/s
  change-rate of left intraventricular pressure, -MAX: −3548.9 ± 707.7 mm/Hg/s
  contractive pressure: 98.48 ± 16.13 mmHg
  diastolic pressure: 50.08 ± 9.88 mmHg
  heart rate: 324.96 ± 36.20 beat/min
  left intraventricular pressure: 120.22 ± 12.98 mmHg
  mean arterial pressure: 66.21 ± 11.57 mmHg
[7]; 30 min after administration
  change-rate of left intraventricular pressure MAX: 4152.8 ± 901.5 mmHg/s
  change-rate of left intraventricular pressure, -MAX: −3416.6 ± 767.5 mm/Hg/s
  contractive pressure: 94.47 ± 17.17 mmHg
  diastolic pressure: 48.00 ± 9.98 mmHg
  heart rate: 322.02 ± 51.09 beat/min
  left intraventricular pressure: 116.59 ± 13.59 mmHg
  mean arterial pressure: 63.49 ± 11.93 mmHg
[7]; 60 min after administration
  change-rate of left intraventricular pressure MAX: 3919.4 ± 784.0 mmHg/s
  contractive pressure: 98.49 ± 22.31 mmHg
  diastolic pressure: 48.81 ± 11.47 mmHg
  heart rate: 317.91 ± 58.04 beat/min
  left intraventricular pressure: 115.68 ± 15.37 mmHg
  mean arterial pressure: 65.37 ± 14.57 mmHg
[7]; 90 min after administration
  change-rate of left intraventricular pressure MAX: 3759.0 ± 814.5 mmHg/s
  change-rate of left intraventricular pressure, -MAX: −3247.4 ± 773.2 mm/Hg/s
  contractive pressure: 99.15 ± 23.91 mmHg
  diastolic pressure: 49.38 ± 13.27 mmHg
  heart rate: 329.61 ± 55.70 beat/min
  left intraventricular pressure: 115.10 ± 16.60 mmHg
  mean arterial pressure: 65.97 ± 16.34 mmHg
[7]; 120 min after administration
  change-rate of left intraventricular pressure MAX: 4044.6 ± 844.9 mmHg/s
  change-rate of left intraventricular pressure, -MAX: −3452.2 ± 630.9 mm/Hg/s
  contractive pressure: 102.58 ± 27.01 mmHg
  diastolic pressure: 51.84 ± 13.93 mmHg
  heart rate: 328.05 ± 58.98 beat/min
  left intraventricular pressure: 118.39 ± 16.55 mmHg
  mean arterial pressure: 68.75 ± 17.93 mmHg
[7]; before administration
  change-rate of left intraventricular pressure MAX: 5455.9 ± 1418.1 mmHg/s
  change-rate of left intraventricular pressure, -MAX: −4215.6 ± 1058.0 mm/Hg/s
  contractive pressure: 137.10 ± 28.79 mmHg
  diastolic pressure: 75.39 ± 19.27 mmHg
  heart rate: 363.19 ± 46.67 beat/min
  left intraventricular pressure: 137.79 ± 18.96 mmHg
  mean arterial pressure: 95.96 ± 22.22 mmHg
[7]; verapamil group (11.4 mg/kg)
  dp/dt (in words): significantly reduced
  effect on the heart rate (in words): significantly reduced
  left intraventricular pressure (in words): significantly reduced
  −dp/dt (in words): significantly reduced
[7]; verapamil group (11.4 mg/kg), 5-120 min
  mean arterial pressure, systolic pressure and diastolic pressure (in words): significantly reduce
[8]
  MDA: 11.86 ± 5.93 nmol/mL

From patent US8017786B2, “Substituted β-phenyl-α-hydroxy-propanoic acid, synthesis method and use thereof” (Northwest University, priority 2006, dated 2011)
